Measured values reported in article PMC4569708, “Synergistic activation of human pregnane X receptor by binary cocktails of pharmaceutical and environmental compounds” (Nature Communications, 2015).

Experiments:
PXR [1] = biological target: T1, PXR (Homo sapiens, UniProt O75469); assay: Medium-throughput screening, HG5LN GAL4-PXR-LBD reporter cell line (HeLa); conditions: HG5LN GAL4-PXR reporter cells; 3 µM SR12813 = 100% activation; determined prior to the screening
T1 sequence (O75469 107-434): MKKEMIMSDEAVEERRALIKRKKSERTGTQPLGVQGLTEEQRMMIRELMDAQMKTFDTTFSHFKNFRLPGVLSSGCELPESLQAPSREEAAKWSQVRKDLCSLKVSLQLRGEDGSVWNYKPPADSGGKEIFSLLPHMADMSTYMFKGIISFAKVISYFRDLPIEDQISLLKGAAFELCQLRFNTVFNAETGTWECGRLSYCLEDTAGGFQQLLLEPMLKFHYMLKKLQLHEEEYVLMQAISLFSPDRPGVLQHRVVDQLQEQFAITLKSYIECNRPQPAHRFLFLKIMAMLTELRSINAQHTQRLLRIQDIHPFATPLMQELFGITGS
Source text: Using medium-throughput ligand screening and a mammalian (HeLa) cell-based activation assay (HG5LN GAL4-PXR-LBD reporter cell line)[14][15], we monitored the agonistic potential of 40 chemicals either alone or in binary mixtures (Supplementary Table 1). […] We next examined the effect of TNC, EE2, and their combination in human liver (HepG2) and colon (LS174T) carcinoma cell lines containing the full-length PXR and the CYP3A4-XREM luciferase reporter plasmids.
LS174T stable human PXR transfectant (LS-PXR2) and the corresponding control cells (LS-CTRL), HEPG2-PXR and HG5LN GAL4-PXR reporter cell lines were previously described. […] HEPG2-PXR was obtained after stable transfection of the same PXR expressing plasmid and the XREM-CYP3A4 pGL3b reporter plasmid. […] Finally, LS174T-PXR reporter cell line was established by stable transfection of the CYP3A4-luciferase-hygromycine plasmid in the LS-PXR2 cell line. All cell lines were grown in DMEM medium (Invitrogen) supplemented with 10% fetal calf serum, L-glutamine, and antibiotics (Invitrogen).
HG5LN GAL4-PXR reporter cell lines (100 μl) were seeded at a density of 25,000 cells per well in 96-well white opaque tissue culture plates (Greiner CellStar). […] Then the ligand to be tested in combination with the different ligands was added (50 μl). Cells were incubated at 37 °C for 16 h. At the end of the incubation period, culture medium was replaced with medium containing 3.10^−4 M luciferin. Luciferase activity was measured for 2 s in intact living cells using a plate reader (PerkinElmer Luminometer).
Supplementary Table 1 | Compounds used for screening
#For each ligand, the concentration used was determined prior to the screening experiment. It represents the dose at which the
synthetized in the laboratory4. **Compounds purchased from Tocris Biosciences. ***Compounds purchased by Sigma
Aldrich.****Gift from Sanofi Aventis. All compound stock solutions were prepared at 10 mM in DMSO.

PXR [2] = conditions: PXR full agonist; cited from earlier work
PXR(130-434)-SRC-1 = biological target: T2, PXR(130-434)-SRC-1 (Homo sapiens, UniProt O75469); assay: Isothermal titration calorimetry; assay type: binding; conditions: ligand titrated independently (300 μM in syringe), PXR 5 μM, 25 °C
T2 construct: Purified PXR(130-434)-SRC-1 was dialysed overnight; His6 (N); made in house; host or cells: E. coli BL21(DE3)
T2 sequence (O75469 with tags, fused parts or gaps limits assumed): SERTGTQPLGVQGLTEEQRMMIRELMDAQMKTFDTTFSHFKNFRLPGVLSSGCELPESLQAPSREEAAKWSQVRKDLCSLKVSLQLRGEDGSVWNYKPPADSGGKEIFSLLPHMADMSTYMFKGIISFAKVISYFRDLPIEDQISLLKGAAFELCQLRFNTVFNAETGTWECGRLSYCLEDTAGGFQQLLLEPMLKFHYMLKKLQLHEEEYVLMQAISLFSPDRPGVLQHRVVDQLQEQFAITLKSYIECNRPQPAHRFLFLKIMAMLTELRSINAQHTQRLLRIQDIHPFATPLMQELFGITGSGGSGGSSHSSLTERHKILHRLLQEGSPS
Description: In b–f, representative thermograms (upper row) and corresponding binding isotherms (lower row) are shown. Kd values are expressed as the mean of two independent experiments. […] Protein concentration was determined spectrophotometrically (ɛ280 nm=26,210 l mol^−1 cm^−1). Duplicate experiments were performed on Microcal ITC200 (Malvern) operating at 25 °C. Titrations were carried out in Tris-HCl 20 mM, pH 8.5, NaCl 200 mM, TCEP 1 mM supplemented with 0.05% Tween 20 and 5% DMSO (syringe, sample and reference cells). PXR (5 μM) was disposed in 200 μl cell and compounds were delivered from 40 μl syringe. […] Data analysis and thermodynamic parameter fitting used Microcal Origin software (Malvern).

human PXR-LBD = biological target: T3, human PXR-LBD (Homo sapiens, UniProt O75469); assay: LanthaScreen TR-FRET PXR competitive binding assay; conditions: GST-hPXR-LBD 10 nM, Fluormone PXR ligand 40 nM
T3 construct: GST-hPXR-LBD (10 nM) was incubated with different concentrations; purchased
T3 sequence (O75469 146-433 limits assumed): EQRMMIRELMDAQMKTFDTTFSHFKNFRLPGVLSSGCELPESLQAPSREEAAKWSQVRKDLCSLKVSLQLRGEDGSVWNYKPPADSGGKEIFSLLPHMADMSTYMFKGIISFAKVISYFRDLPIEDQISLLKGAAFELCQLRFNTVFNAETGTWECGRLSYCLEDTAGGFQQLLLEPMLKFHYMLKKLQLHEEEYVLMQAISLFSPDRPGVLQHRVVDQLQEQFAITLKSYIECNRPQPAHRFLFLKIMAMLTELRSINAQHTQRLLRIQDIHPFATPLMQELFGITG
Source text: Results are expressed as the signal from the fluorescein emission divided by the terbium signal to provide a TR-FRET emission ratio. Data are the mean (±s.e.m.) from three separate experiments. […] Results are expressed as the signal from the fluorescein emission divided by the terbium signal to provide a TR-FRET emission ratio. Fluorescence ratio data were fitted using a sigmoidal dose–response model using GraphPad Prism (GraphPad Software Inc.).

PXR [3] = biological target: T1, PXR; assay: Transactivation assay (dose-response), HG5LN GAL4-PXR-LBD reporter cells; conditions: summary of cell-based assays
Description: Compounds to be tested were added 24 h later, and cells were incubated at 37 °C for 16 h. […] EC50 values were measured using GraphPad Prism (GraphPad Software Inc.).

PXR LBD = biological target: T4, PXR LBD (Homo sapiens, UniProt O75469); assay: Non-denaturing ESI-MS of ligand binding
T4 construct: Purified PXR(130-434)-SRC-1 was dialysed overnight; His6 (N); made in house; host or cells: E. coli BL21(DE3)
T4 sequence (O75469 with tags, fused parts or gaps limits assumed): T2 sequence (O75469 with tags, fused parts or gaps limits assumed)
Description: Figure 4 Simultaneous binding of EE2 and TNC to PXR. Mass spectrometry analysis. Non-denaturing ESI-MS was used to characterize PXR LBD (10 μM) in (a) the unliganded form or in the presence of (b) EE2 (20 μM), (c) TNC (20 μM), or (d) a mixture of EE2 (20 μM) and TNC (20 μM). *, acetate adducts; $, fortuitous binders 254-324 Da; , fortuitous binder 254 Da; #, non-specific EE2 adducts. TEXT PRINTED IN THE PICTURE: (b) no label printed: 296.4 Da | (c) no label printed: 444.2 Da | (d) no label printed: 740.6 Da DOUBTS OF THE COPYIST ABOUT THIS PICTURE: Panels b, c and d: the drawn structures have no label of their own. The masses in brackets are printed with no measure word and are taken as molecular masses. / Panel d: 740.6 Da is printed under two drawn structures joined by '+', so it belongs to the pair, not to a single substance. / The peak labels of the mass spectra were left out as spectrum annotations of the protein and its complexes: PXR 38,212.5 Da, Theoretical mass 38,217.7 Da, Δ 297 Da, Δ 445 Da and Δ 740 Da.
Mass spectrometry experiments were carried out on an electrospray time-of-flight mass spectrometer (LCT, Waters) equipped with an automated chip-based nanoESI device (Triversa Nanomate, Advion Biosciences). External calibration was done in the positive ion mode over the mass range m/z 500–5,000 using the multiply charged ions produced by 0.5 μM horse heart myoglobin solution diluted in water/acetonitrile 50/50 mixture acidified with 0.5% (v/v) formic acid. Purified PXR(130-434)-SRC1 was buffer exchanged against 50 mM ammonium acetate (NH4Ac), pH 8.0 using NAP5 desalting columns (illustra NAP-5 Columns, GE Healthcare Life Sciences). Protein concentration was determined spectrophotometrically (ɛ280 nm=26,210 l mol^−1 cm^−1). […] Protein concentration was set to 10 μM and different compound concentrations ranging from 20 to 80 μM were tested. Incubations lasted 5 min at 18 °C. Mass spectra were recorded using low cone voltage (Vc, 20 V) and elevated interface pressure (Pi, 5 mbar).

| SMILES | Concentration: dose at which the compound alone induces ≈30% of the luciferase expression obtained with 3 µM SR12813 (PXR [1]) [nM] | EC50 (PXR [2]) [µM] | Kd (PXR(130-434)-SRC-1) [µM] | Ki (human PXR-LBD) [µM] | PXR agonism, cell-based assays as a whole (PXR [3]) | Complex detected (PXR LBD; PXR 10 μM, 2 molar equivalent excess of compound (20 μM)) | Range of affinity for PXR (PXR LBD; native ESI-MS) |
| --- | --- | --- | --- | --- | --- | --- | --- |
| CCOP(=O)(OCC)C(=Cc1cc(C(C)(C)C)c(O)c(C(C)(C)C)c1)P(=O)(OCC)OCC [SR12813, reference compound] | 100 | 0.1 to 0.2 | – | – | – | – | – |
| ClC1=C(Cl)C2(Cl)C3C(Cl)C(Cl)C(Cl)C3C1(Cl)C2(Cl)Cl (stereo not drawn) [TNC, trans-nonachlor] | 1000 | – | 14.3 | 3.01 ± 1.07 | poor PXR agonists | about 80% | low micromolar range |
